In brackets after ≈: the same amount, converted by molar mass.
Legend:
[1] = system: T1, CTL2-GFP (C. trachomatis L2/434/Bu, GFP-expressing); assay: microbe, parasite or virus in culture; design: C. trachomatis growth in HeLa, dose-response, mean of bulk GFP fluorescence and imaged total inclusion area; conditions: Chlamydia trachomatis, HeLa, 28.5 h; mean of GFP and inclusion area
T1 construct: L2/434/Bu, GFP-expressing
How it was run: (§1)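 Screening measures GFP fluorescence from the reporter strain and resorufin fluorescence for host viability, with Hoechst-based imaging of fixed cells adding inclusion area, inclusion number and nuclei count per well.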

in vitro = assay: in vitro; design: Viability of infected HeLa host cells, resazurin conversion, bulk resorufin fluorescence relative to DMSO; conditions: human, hela cells; bulk resorufin, mean of 3
[2] = system: T1, CTL2-GFP (C. trachomatis L2/434/Bu, GFP-expressing); assay: microbe, parasite or virus in culture; design: species or system HeLa; C. trachomatis growth in HeLa, dose-response, mean of bulk GFP fluorescence and imaged total inclusion area; conditions: Chlamydia trachomatis, 28.5 h; mean of GFP and inclusion area
How it was run: as §1

SMILES	IC50 [1] [µM]	viability at 28.5 h, 0.000416667 µM (in vitro) [%]	viability at 28.5 h, 0.00125 µM (in vitro) [%]	viability at 28.5 h, 0.00375 µM (in vitro) [%]	viability at 28.5 h, 0.0123333 µM (in vitro) [%]	viability at 28.5 h, 0.037 µM (in vitro) [%]	viability at 28.5 h, 0.111 µM (in vitro) [%]	viability at 28.5 h, 0.333 µM (in vitro) [%]	viability at 28.5 h, 1 µM (in vitro) [%]	viability at 28.5 h, 3 µM (in vitro) [%]	viability at 28.5 h, 10 µM (in vitro) [%]	viability at 28.5 h, 30 µM (in vitro) [%]	MIC [2] [µM]
CCCCc1ccc(NC(=N)Nc2nc(C)cc(C)n2)cc1 [c33e]	3.25	90.9	88	91.3	91.5	93.1	92.6	94.3	88.2	98.2	101	112	11.7 (≈ 3.49 µg/mL)
CN(C(=O)c1ccc(Cl)c(Cl)c1)[C@H]1CCC[C@H]1N1CCCC1 [c12e]	1.02	93	89.3	91.4	89	88.9	92.8	88.7	89	85.2	92.7	82.8	1.7 (≈ 0.581 µg/mL)
CC(Cc1nc(-c2nccn2C)cs1)n1cc(Cl)cn1 (centres unmarked) [c14e]	1.03	104	110	107	105	103	106	103	111	108	110	110	3.65 (≈ 1.12 µg/mL)
FC(F)(F)CCN1CCC2(CC1)NCCc1c2[nH]c2ccc(Cl)cc12 [c34e]	3.31	86.8	91.2	88.2	90.3	88.5	93.2	89.1	91.8	88.3	93.9	71.8	11.9 (≈ 4.42 µg/mL)
FC(F)(F)c1ccc(N2CCNCC2)nc1OCc1ccc2c(c1)OCCO2 [c46e]	6.17	85.8	88.5	88.8	94.6	90.4	93.4	88.9	91.1	94	97.2	11.7	11.3 (≈ 4.47 µg/mL)
CCOc1ccsc1C(=O)NC1Cc2ccccc2C1 [c16e]	1.19	89.7	86.9	89.9	85.4	87.1	85.4	87.5	84.6	84.5	84.3	87	3.2 (≈ 0.92 µg/mL)
O=[N+]([O-])c1ccc(-n2cnc3ccccc32)c([N+](=O)[O-])c1 [c41e]	5.2	99	96.9	102	101	104	97.8	104	99.3	99	101	96.3	11.2 (≈ 3.17 µg/mL)
O=C(CSc1nnc(-c2cccnc2)o1)c1ccccc1 [c35e]	3.71	99.4	96.5	91.9	91.4	87	90.5	87	90.5	84.4	87	88.7	11.9 (≈ 3.54 µg/mL)
Cc1ccc2[nH]c3c(c2c1)CCOC31CCN(Cc2ccccc2-c2ccccc2)CC1 [c22e]	1.8	98.6	89.4	94.8	87.6	94.6	86.6	87.8	85.7	85.7	86.9	70.7	3.81 (≈ 1.61 µg/mL)
Cn1cc(C(c2ccc(OCC(=O)O)cc2)c2cn(C)c3ccccc23)c2ccccc21 [c48e]	6.69	87.9	89.6	87.2	88.7	88.5	89.5	89.6	93.9	93.8	97.6	87.9	8.4 (≈ 3.56 µg/mL)
CC(=O)N1CCc2sccc2C1c1ccccc1NCc1ccoc1 (centres unmarked) [c28e]	2.6	92.9	92.5	86	93.2	90.6	89.2	86.1	90.6	82.6	87.9	83	5.24 (≈ 1.85 µg/mL)
COc1cccc(CNC(C(=O)O)c2ccc3c(c2)OCO3)c1 (centres unmarked) [c40e]	4.96	109	98.4	103	95.7	99.4	102	103	104	103	99.7	89.7	10.8 (≈ 3.42 µg/mL)
Oc1c(CN2CCN(c3ccc(F)cc3)CC2)cc(Br)c2cccnc12 [c43e]	5.48	97.2	91.7	92.6	88.5	91.8	86.8	90	86.1	88.5	84.3	85.2	9.58 (≈ 3.99 µg/mL)
O=C(CC1SC(Nc2ccc(O)cc2)=NC1=O)c1ccccc1 (centres unmarked) [c13e]	1.03	95	92.7	87.7	95	87.6	92	86.2	88.7	85.2	85.6	83.8	4.56 (≈ 1.49 µg/mL)
